Measurements published in patent publication US20190269715A1, “COMPOSITIONS AND METHOD OF USE OF A-TYPE PROCYANIDINS” (MARS, INCORPORATED, priority 2004, published 2019).

Experiments:
[1] = system: platelets in whole blood; assay: Collagen-induced platelet aggregation in whole blood (platelet counting); assay type: cell-based, human; settings: collagen 0.125-0.5 μg/ml, A1 dimer 0.3 mM; for collagen-induced platelet aggregation: FIG. 2, 4 and 10 min, ASA 100 μM
Method: Platelet aggregation of A1 dimer [A1D] was measured using a platelet counting technique, and formation of platelet/monocyte conjugates (P/M) and platelet/neutrophil conjugates (PIN) by flow cytometry. In later experiments the activation state of platelets associated with leukocytes (CD62P) was also measured and also the activation state of the leukocytes themselves (CD11b).
A1 dimer [A1D] was dissolved in ethanol. Once in solution, further dilution with saline was possible. Hirudin, (Revasc™) was obtained from Novartis (Basel, Switzerland) and was stored as a 5 mg/ml solution in saline in a glass vial at −20° C. Collagen (Nycomed) was from Axis Shield Diagnostics (Dundee, UK). Concentrations were prepared from the stock solution (1 mg/ml) using the isotonic glucose buffer supplied by the manufacturer. Aspirin (acetyl salicylic acid-ASA), adenosine diphosphate (ADP), platelet activating factor (PAF), arachidonic acid (AA) and epinephrine were from Sigma. Fixing solution consisted of 140 mM NaCl containing 0.16% w/v formaldehyde, 4.6 mM Na2EDTA, 4.5 mM Na2HP04 and 1.6 mM KH2PO4, pH 7.4.
Blood samples were studied using the Multi-Sample Agitator (MSA) produced by the Medical Engineering Unit (University of Nottingham). The MSA is used to maintain blood samples at 37° C. and to agitate small samples of blood at a stir speed of 1,000 rpm as required. […]
Following the 30 min pre-incubation, aliquots of blood (480 μl) were dispensed into small polystyrene tubes each containing a stir bar and stirred for 2 min in the MSA. […] The platelet count in the fixed samples was determined using the UltraFlo-100 Whole Blood Platelet Counter. Platelet aggregation was calculated as the percentage loss of single platelets with reference to the platelet count of the EDTA sample.
Blood was obtained from three different volunteers and the platelet aggregation and platelet/leukocyte conjugate formation was measured in response to collagen (0, 0.125, 0.25 and 0.5 μg/ml). […] Aggregation was measured at 4 and 10 min following agonist addition and platelet/leukocyte conjugate formation only at 10 min. […]

[2] = system: rabbit aortic rings; assay: Ex vivo endothelium-dependent relaxation of NE pre-constricted rabbit aortic rings; settings: for relaxation in pre-contracted aortic rings, dose dependence: FIGS. 1A-1C, 10^-9 to 10^-4 M cumulative; for vasorelaxation, percent relaxation of NE constricted rings: concentration 10^−4M, +/−SE; for relaxant potency compared with positive control acetylcholine: significant at p=0.005 for A1 dimer
Method: Effect of A-type procyanidins on endothelium-dependent relaxation was tested in an ex vivo experiment performed as previously described by Karim et al., J. Nutrl Suppl., 130 (8S): […]-[…] (2000), the relevant portions of which are hereby incorporated herein by reference. The advantage of using this method is that it assesses functional cardiovascular end points. […] In summary, rabbit aortic rings were obtained from male New Zealand White rabbits. Following isolation, the rings were mounted in oxygenated Kreb's buffer, and pre-constricted with NE (10^-6 M). When the tension had reached a steady state, cumulative concentrations of the test compounds were applied (10^-9 to 10^-4 M). A positive control acetylcholine (10^-6M) and a negative control L-NAME were included in the experiment. Use of L-NAME, which is a NO synthase (NOS) inhibitor, allows for differentiating between endothelium dependent and endothelium independent relaxation events. Denuding of aortic rings represent a similar control. 400 U/mL of catalase was added into the aortic bath prior to the addition of each of the test compounds to ensure that the observed effects are not caused by hydrogen peroxide (H202) generation in the culture medium. The relaxation response was measured as a function of the decrease in the tension (g) exerted by the aortic rings over time. Data obtained were expressed as a percent relaxation of the norepinephrine (NE) constricted rings. The same statistical approach as described above was used. Dose response curves were obtained by plotting the average percent relaxation (+/-SE) against the concentrations used.

[3] = system: CD11b on monocytes and neutrophils; assay: Leukocyte activation (CD11b expression) by flow cytometry; assay type: cell-based, human; settings: FIG. 3; 10 min; collagen 0.125-0.5 μg/ml; A1 dimer 0.3 mM, aspirin 100 μM
Method: Platelet-leukocyte conjugate formation was measured in the same stirred samples used to measure platelet aggregation. Sub samples were taken 4 min or 10 min following the addition of agonist and transferred into the appropriate antibody or antibody mixture. These were then incubated in the dark at room temperature for not less than 20 min. Following red cell lysis and a washing procedure the cell suspensions were applied to either the FACScan or the LSRII flow cytometer. Leukocytes were identified by logical gating from dot plots of forward scatter (cell size) and side scatter (cell granularity) profiles acquired with linear amplification. […] Fluorescence parameters were acquired with logarithmic amplification. Platelet monocyte (P/M) and platelet neutrophil (P/N) conjugates were quantified as median CD42a (FITC) fluorescence of the monocyte (P/M mf) or neutrophil population (PIN mf). Leukocyte activation was measured by CD11b (AlexaFluor647) expression (CD11b-M for monocytes and CD11b-N for neutrophils). Platelet activation (P-selectin expression) was measured by CD62P (PE) positivity of the platelets associated with leukocytes as (CD62P-M on P/M and CD62P-N on PIN). […]
Blood was obtained from three different volunteers and the platelet aggregation (4 min) and platelet/leukocyte conjugate formation (10 min) was measured in response to collagen (0, 0.125, 0.25 and 0.5 μg/ml). […]

[4] = experimental animal studies; cited from earlier work
[5] = system: HUVECs; assay: MTT reduction, toxic effects on HUVECs; assay type: cell-based, human; settings: acute effect test
Method: (§1) Test compounds were evaluated with respect to their potential to acutely (2 hours) and chronically (5 doses given in a 24 h period) modulate NO production. Positive controls (acetylcholine and/or histamine) and negative control L-NNMA (NO synthase inhibitor) were included in all experiments. Cell counts and total protein were used to assess intra-assay variation. Potential toxic effects of tested compounds were also monitored (MTT reduction was measured).
(§2) For the acute effect test, HUVECs were incubated with a single dose of A2 dimer and A-type trimer for 2 and 24 hours at concentrations of 100 nM, 1 μM, and 10 μM at 37 C and 5% CO2. No effect was observed on NO production after 2 hours.

[6] = system: human umbilical vein endothelial cell (HUVEC); assay: NO production (NOx) in serum-free HUVEC culture; assay type: cell-based
Method: The compounds obtained as described in Example 1, were investigated for their effect on nitric oxide (NO) production and vasorelaxation using serum-free human umbilical vein endothelial cell (HUVEC) culture system in vitro and rabbit aortic ring model ex vivo, respectively. NO production by endothelial cells and relaxation of pre-constricted aortic rings are two main markers for evaluating cardiovascular effects of test compounds.
HUVECs obtained from a single donor were cultured in serum free, low protein (0.5 g/l), antibiotic-free cell culture medium supplemented with essential growth factors, nutrients and minerals. […] The cell culture medium was substituted with apo-transferrin, superoxide dismutase, and catalase to exclude secondary effects of test compounds involving their auto-oxidation mediated hydrogen peroxide formation.
as §1
NO production was evaluated by measuring the total amount of all major nitric oxide end products (NOx, including nitrate, nitrite, nitrosothiols) present in the cell culture medium. […] The amount of NO released from the culture medium was subsequently evaluated by measuring the chemiluminescence emitted during the stoichiometrical reaction between ozone and NO using NO Analyzer (Sievers Instruments, Inc. Boulder, Colo.).
The data presented herein were obtained from three experiments and were expressed as the concentration of NO present (in μmol/l) (as NOx) in the cell culture medium+/−standard deviation (SD). The data were corrected for the NOx intrinsically present in the fully supplemented cell culture medium and normalized with respect ot the volume of media from which the ample was drawn. Data were analyzed using Student's t-test with a 95% level of confidence. P values equal to or less than 0.005 were defined as statistically significant.
as §2
For the chronic effect test, HUVECs were incubated with 5 subsequent doses of test compounds, each for 24 hours. After each 24 hour treatment, culture medium was replaced. A2 dimer and A-type trimer were tested.

[7] = system: platelet/monocyte and platelet/neutrophil conjugates in whole blood; assay: Platelet-leukocyte conjugate formation (P/M, P/N) by flow cytometry; assay type: cell-based, human; settings: FIG. 2; 10 min; collagen 0.125-0.5 μg/ml; ASA 100 μM
Method: Platelet aggregation of A1 dimer [[MUT]] was measured using a platelet counting technique, and formation of platelet/monocyte conjugates (P/M) and platelet/neutrophil conjugates (PIN) by flow cytometry. In later experiments the activation state of platelets associated with leukocytes (CD62P) was also measured and also the activation state of the leukocytes themselves (CD11b). Blood was obtained from healthy volunteers, who denied taking any aspirin or NSAIDS in the previous 10 days. This blood was dispensed into graduated polystyrene tubes that contained hirudin (final concentration 50 μg/ml) and a small volume of the flavanol under investigation or ethanol as control. The final concentration of ethanol in the blood was always 0.3%. […] Platelet-leukocyte conjugate formation was measured in the same stirred samples used to measure platelet aggregation. […] Fluorescence parameters were acquired with logarithmic amplification. Platelet monocyte (P/M) and platelet neutrophil (P/N) conjugates were quantified as median CD42a (FITC) fluorescence of the monocyte (P/M mf) or neutrophil population (PIN mf). Leukocyte activation was measured by CD11b (AlexaFluor647) expression (CD11b-M for monocytes and CD11b-N for neutrophils). Platelet activation (P-selectin expression) was measured by CD62P (PE) positivity of the platelets associated with leukocytes as (CD62P-M on P/M and CD62P-N on PIN). […]

[8] = target: Leukemia virus reverse transcriptase (Moloney murine leukemia virus, UniProt P03355); settings: cited from earlier work
[9] = acute test, single dose, after 2 hours, 100 nM, 1 μM and 10 μM
[10] = acute test, single dose, after 24 hours, 1 μM
[11] = acute test, single dose, after 24 hours, 10 μM, not statistically significant
[12] = typical response of positive control

With `Oc1cc(O)c2c(c1)O[C@@]1(c3ccc(O)c(O)c3)Oc3cc(O)c4c(c3[C@@H]2[C@H]1O)O[C@H](c1ccc(O)c(O)c1)[C@@H](O)C4` [A1 dimer, epicatechin-(4β→8; 2β→O→7)-catechin] the collagen-induced platelet aggregation [1] was “inhibited”, the collagen induced aggregation ([1]; FIG. 3, 4 min) was “inhibited” and the “relaxation in pre-contracted aortic rings, dose dependence” value (shortened to “relaxation … dose dependence”) [2] was “dose-dependent relaxation”. The “vasorelaxation, percent relaxation of NE constricted rings” value (from here on “vasorelaxation, percent relaxation”) [2] was 93.20+/−3.46%, the “relaxant potency compared with positive control acetylcholine” value [2] was “more potent relaxants that the positive control” and the “leukocyte activation (CD11b)” value [3] was “did not inhibit”.

For `O=c1c(O)c(-c2ccc(O)c(O)c2)oc2cc(O)cc(O)c12` [quercetin], the anticarcinogenic activity [4] is listed as “anticarcinogenic activity”.

For `Oc1cc(O)c2c(c1)O[C@@]1(c3ccc(O)c(O)c3)Oc3cc(O)c4c(c3[C@@H]2[C@H]1O)O[C@H](c1ccc(O)c(O)c1)[C@H](O)C4` [A2 dimer, epicatechin-(4β→8; 2β→O→7)-epicatechin], the “toxic effects, MTT assay” value [5] was “did not have toxic effects”, the “relaxation … dose dependence” value [2] was “dose-dependent relaxation” and the “vasorelaxation, percent relaxation” value [2] was 85.00+/−2.91%. The “relaxant potency compared with positive control acetylcholine” value [2] was “more potent relaxants that the positive control”, the “effect on NO production” value [6, 9] was “No effect” and the “effect on NO production” value [6, 10] was “no effect”. The “effect on NO production” value [6, 11] was “increased NO production above the control level”.

In the case of `CC(=O)Oc1ccccc1C(=O)O` [ASA, acetyl salicylic acid, reference compound], the collagen-induced platelet aggregation [1] is reported as “effectively inhibited”, the “leukocyte activation (CD11b)” value [3] is reported as “no effect” and the “platelet/monocyte conjugates (P/M)” value [7] is reported as “effectively inhibited”. For the same compound, the “platelet/neutrophil conjugates (P/N)” value [7] was “effectively inhibited”.

In the case of `Oc1cc(O)c2c(c1)O[C@H](c1ccc(O)c(O)c1)[C@H](O)C2` [(−)-epicatechin], the “inhibition of Leukemia virus reverse transcriptase activity” value [8] is listed as “inhibit”.

With `Oc1cc(O)c2c(c1)O[C@@]1(c3ccc(O)c(O)c3)Oc3cc(O)c4c(c3[C@@H]2[C@H]1O)O[C@H](c1ccc(O)c(O)c1)[C@@H](O)C4c1c(O)cc(O)c2c1CC(c1ccc(O)c(O)c1)C(O)C2` (some centres unmarked) [A-type trimer] the “toxic effects, MTT assay” value [5] was “did not have toxic effects”, the “relaxation … dose dependence” value [2] was “dose-dependent relaxation” and the “vasorelaxation, percent relaxation” value [2] was 56.5+/−16.56%. For the same compound, the “effect on NO production” value [6, 9] was “No effect”, the “effect on NO production” value [6, 10] was “no effect” and the “effect on NO production” value [6, 11] was “increased NO production above the control level”. The “effect on NO production” value ([6]; chronic test, 5 subsequent doses, each for 24 hours, p=0.041) was “statistically significant increase in NO production”.

For `Oc1cc(O)c2c(c1)O[C@H](c1ccc(O)c(O)c1)[C@@H](O)C2` [(+)-catechin], the “inhibition of Leukemia virus reverse transcriptase activity” value [8] is listed as “inhibit”.

In the case of `CC(=O)OCC[N+](C)(C)C` [Acetylcholine, acetylcholine, reference compound], the “concentration producing a relaxation response” value [2, 12] is reported as 10^−7 M and the “concentration reaching maximal relaxation” value [2, 12] is reported as 10^−6 M.
